Measurements published in US20110046385A1, “Polymorphs Of Prostaglandin Agonists And Methods For Making The Same” (priority 2007, published 2011).

Experiments:
[1] = system: Bone Morphogenetic Protein 7 (BMP-7) expression in 293S cells transfected with EP2; assay: Kidney regeneration assay: BMP-7 expression (Northern blot) in EP2 293S cells; assay type: cell-based, human; details: 10^-6M, RNA at 8, 16 and 24 hours
Procedure: (§1) Methods: 293S and EP2 293S cells are grown in Dulbecco's Modified Eagle medium (DMEM, Gibco, BRL; Gaithersburg, Md.). […] Cells are harvested and RNA is extracted at 8, 16 and 24 hours. Northern blot analysis of total RNA ([…]) is carried out by probing the blots with ^32P-labeled BMP-7 probe. The blots are normalized for RNA loading by hybridization with ^32P-labeled 18s ribosomal RNA probe. […] Given the known role of BMP-7 in kidney regeneration and the ability of an prostaglandin agonist to induce BMP-7 expression in 293S kidney cells in a time and receptor specific manner indicates a role for prostaglandin agonist in kidney regeneration.

[2] = system: Bone Morphogenetic Protein 7 (BMP-7) expression in wild type 293S cells; assay: Kidney regeneration assay: BMP-7 expression (Northern blot) in wild type 293S cells; assay type: cell-based, human; details: parental 293S cell line, 10^-6M, RNA at 8, 16 and 24 hours
Procedure: as §1

[3] = system: trabecular bone in the tibial metaphysis; details: daily intraosseous injections into left tibia metaphysis for 14 days; cited from earlier work
[4] = system: alveolar bone in the mandible; details: dogs, local infusion for 3 weeks, 500 to 2000 μg per week; cited from earlier work
[5] = system: rib fracture site; details: adult beagles, 0.2 mg injected into rib fracture sites twice a day for 10 days; cited from earlier work
[6] = system: tibia defect site; details: beagles, 0.2 mg/kg injected into tibia defect site twice a day for 10 days; cited from earlier work

Structure (SMILES)	induction of BMP-7 expression [1]	induction of BMP-7 expression [2]	trabecular bone in the metaphysis [3]	alveolar bone formation [4]	bone matrix formation at fracture site [5]	periosteal and cortical endosteal bone formation [6]
CCCCC[C@H](O)/C=C/[C@H]1[C@H](O)CC(=O)[C@@H]1C/C=C\CCCC(=O)O [PGE2, prostaglandin E2]	induce the expression of BMP-7 in the EP2 293S cells in a time dependent manner	generally not observed	significant increase of trabecular bone in the metaphysis			
CCCCC[C@H](O)/C=C/[C@H]1[C@H](O)CC(=O)[C@@H]1CCCCCCC(=O)O [PGE1, prostaglandin E1]				dramatic, localized formation of alveolar bone	induced bone matrix formation on the periosteal envelope adjacent to the fracture site and its contralateral matching site	more periosteal and cortical endosteal bone formation, with an increased amount of osteoid present
